For one series, the system named is Aspergillus fumigatus. Put plainly: Antifungal activity, liquid phase microdilution (NCCLS M27/M38-P). In kind it is cell-based. Also on record: IC50 (minimum concentration to bring about 50% inhibition): unit not given here. On the procedure:
(§1) Experiment A: Antifungal Activity of Compounds of the Formula (I)
(§2) The antifungal activity of the compounds of the formula (I) was determined using various strains of yeast and filamentous fungi. […] Table no.

In the next series the test system is Candida albicans. The series is described as above. In kind it is cell-based. On the procedure: as §1, §2
Another series addresses T1, CYP3A4 (Homo sapiens, UniProt P08684).
T1 construct: purchased Gentest
Put plainly: Inhibition of human cytochromes, fluorescent substrates. In kind it is in vitro ADME. Conditions: isoenzyme (Gentest), 37° C. On the procedure:
(§3) Experiment B: Inhibition of Human Cytochromes by Compounds of the Formula (I)
The individual isoenzymes (Gentest) and the respective substrates were incubated in 96 well plates in buffer containing […] at 37° C. in the presence or absence of the compound under investigation. […] The degree of inhibition of each individual isoenzyme by known inhibitors was also assessed as a positive control.

The target of the next series is T2, CYP2D6 (Homo sapiens, UniProt P10635).
T2 construct: purchased Gentest
The description is as above. The settings on record: isoenzyme (Gentest), 37° C. In kind it is in vitro ADME. On the procedure: as §3
(§4) Inhibition of the enzymatic activity of the most significant isoforms of human cytochromes by the compounds of the formula (I) was measured by using specific substrates which become fluorescent as a result of the metabolic action of a particular cytochrome isoform. The individual isoenzymes (Gentest) and the respective substrates were incubated in 96 well plates in buffer containing […] at 37° C. in the presence or absence of the compound under investigation. […] The degree of inhibition of each individual isoenzyme by known inhibitors was also assessed as a positive control.

The next series concerns the target T3, CYP1A2 (Homo sapiens, UniProt P05177).
T3 construct: purchased Gentest
T3 sequence (P05177 1-516): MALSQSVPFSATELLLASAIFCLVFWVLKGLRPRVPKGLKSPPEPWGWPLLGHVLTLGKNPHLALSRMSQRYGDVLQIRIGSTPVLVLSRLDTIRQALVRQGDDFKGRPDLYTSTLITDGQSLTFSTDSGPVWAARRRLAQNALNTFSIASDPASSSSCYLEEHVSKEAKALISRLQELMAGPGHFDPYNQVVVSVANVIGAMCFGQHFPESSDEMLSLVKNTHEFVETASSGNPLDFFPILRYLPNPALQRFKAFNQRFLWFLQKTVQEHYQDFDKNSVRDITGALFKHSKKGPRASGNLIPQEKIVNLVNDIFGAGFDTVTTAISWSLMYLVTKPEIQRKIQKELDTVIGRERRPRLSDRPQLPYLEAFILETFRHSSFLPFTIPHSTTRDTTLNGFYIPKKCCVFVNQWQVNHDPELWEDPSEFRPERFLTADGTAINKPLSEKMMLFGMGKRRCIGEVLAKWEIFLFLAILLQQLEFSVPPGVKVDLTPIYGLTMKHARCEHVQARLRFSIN
The description is as above. In kind it is in vitro ADME. The settings on record: isoenzyme (Gentest), 37° C. The procedure:
as §3, §4

The next series concerns the target T4, CYP2C19 (Homo sapiens, UniProt P33261).
T4 construct: purchased Gentest
Described as above. In kind it is in vitro ADME. Conditions: isoenzyme (Gentest), 37° C. On the procedure:
as §3, §4

The next series concerns the target T5, CYP2C9 (Homo sapiens, UniProt P11712).
T5 construct: purchased Gentest
Described as above. The settings on record: isoenzyme (Gentest), 37° C. In kind it is in vitro ADME. On the procedure:
as §3, §4

The test system of the next series is Candida glabrata. Put plainly: Antifungal activity, liquid phase microdilution (NCCLS M27/M38-P). In kind it is cell-based. The settings on record: Candida glabrata strain 02-0902. On the procedure:
as §1, §2

The test system of the next series is Candida parapsilosis. Described as above. In kind it is cell-based. Conditions: Candida parapsilosis strain ATCC22019. On the procedure: as §1, §2
The mark [1] stands for this setting: Aspergillus fumigatus strain 34.
Where [2] appears, read: Aspergillus fumigatus strain 99-2135.

Converted amounts (≈) assume the structure as drawn.

T5 sequence (P11712 whole entry): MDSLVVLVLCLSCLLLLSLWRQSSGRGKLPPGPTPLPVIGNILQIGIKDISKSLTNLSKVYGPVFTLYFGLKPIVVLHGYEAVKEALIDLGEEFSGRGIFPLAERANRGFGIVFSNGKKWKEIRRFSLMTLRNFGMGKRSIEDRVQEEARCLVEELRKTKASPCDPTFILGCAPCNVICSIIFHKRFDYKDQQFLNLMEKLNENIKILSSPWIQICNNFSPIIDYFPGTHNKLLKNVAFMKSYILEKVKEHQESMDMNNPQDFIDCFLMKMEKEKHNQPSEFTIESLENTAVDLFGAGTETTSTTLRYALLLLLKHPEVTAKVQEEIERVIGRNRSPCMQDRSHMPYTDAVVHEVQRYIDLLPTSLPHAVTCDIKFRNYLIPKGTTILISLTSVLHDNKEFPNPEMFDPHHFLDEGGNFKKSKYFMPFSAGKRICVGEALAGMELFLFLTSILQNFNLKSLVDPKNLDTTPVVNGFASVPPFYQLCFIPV
T2 sequence (P10635 whole entry): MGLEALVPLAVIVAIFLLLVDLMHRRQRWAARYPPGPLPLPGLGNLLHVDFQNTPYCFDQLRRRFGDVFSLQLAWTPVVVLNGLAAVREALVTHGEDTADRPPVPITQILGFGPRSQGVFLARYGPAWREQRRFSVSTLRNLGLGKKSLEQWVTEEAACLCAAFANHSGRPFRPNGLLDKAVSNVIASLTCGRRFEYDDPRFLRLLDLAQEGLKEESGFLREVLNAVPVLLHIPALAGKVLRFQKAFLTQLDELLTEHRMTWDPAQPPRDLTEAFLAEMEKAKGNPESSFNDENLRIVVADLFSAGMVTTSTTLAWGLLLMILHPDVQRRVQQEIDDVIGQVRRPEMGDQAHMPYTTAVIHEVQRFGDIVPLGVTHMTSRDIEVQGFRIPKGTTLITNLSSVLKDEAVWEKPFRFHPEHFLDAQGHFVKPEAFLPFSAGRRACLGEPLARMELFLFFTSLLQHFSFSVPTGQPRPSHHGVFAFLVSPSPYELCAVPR
T1 sequence (P08684 whole entry): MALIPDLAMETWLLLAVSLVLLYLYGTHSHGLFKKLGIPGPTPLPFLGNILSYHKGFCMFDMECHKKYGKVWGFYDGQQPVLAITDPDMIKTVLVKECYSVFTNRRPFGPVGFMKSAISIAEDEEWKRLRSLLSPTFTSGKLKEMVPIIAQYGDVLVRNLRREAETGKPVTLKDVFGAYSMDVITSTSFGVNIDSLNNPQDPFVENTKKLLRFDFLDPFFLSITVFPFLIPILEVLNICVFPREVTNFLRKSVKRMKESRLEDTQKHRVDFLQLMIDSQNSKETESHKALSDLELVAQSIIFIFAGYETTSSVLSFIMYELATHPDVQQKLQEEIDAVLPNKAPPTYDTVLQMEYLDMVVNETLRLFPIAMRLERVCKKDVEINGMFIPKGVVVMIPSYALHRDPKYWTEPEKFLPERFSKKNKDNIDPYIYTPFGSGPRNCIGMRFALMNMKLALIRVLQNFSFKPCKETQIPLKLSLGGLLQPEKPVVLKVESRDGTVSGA
T4 sequence (P33261 whole entry): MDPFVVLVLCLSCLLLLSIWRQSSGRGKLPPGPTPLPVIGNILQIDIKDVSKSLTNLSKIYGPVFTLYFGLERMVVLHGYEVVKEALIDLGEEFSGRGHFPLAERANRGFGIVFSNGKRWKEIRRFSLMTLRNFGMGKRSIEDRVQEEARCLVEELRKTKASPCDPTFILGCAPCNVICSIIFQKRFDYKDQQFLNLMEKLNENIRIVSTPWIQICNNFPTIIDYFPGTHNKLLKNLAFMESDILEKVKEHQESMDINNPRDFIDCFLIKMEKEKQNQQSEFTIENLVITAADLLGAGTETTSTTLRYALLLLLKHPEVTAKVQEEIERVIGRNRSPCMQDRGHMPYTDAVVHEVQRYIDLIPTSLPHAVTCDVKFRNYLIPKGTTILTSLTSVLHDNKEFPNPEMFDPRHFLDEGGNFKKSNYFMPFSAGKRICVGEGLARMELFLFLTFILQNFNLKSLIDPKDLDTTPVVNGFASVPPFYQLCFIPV

Turning to `CCC(C)n1ncn(-c2ccc(N3CCN(c4ccc(OCC5COC(Cn6cncn6)(c6cccc[n+]6[O-])O5)cc4)CC3)cc2)c1=O` (racemic) [Example 17, cis(±)-4-{4-[4-{4-[2-(1-oxy-pyridin-2-yl)-2-(1H-1,2,4-triazol-1-yl-methyl)-1,3dioxolan-4-yl-methoxy]phenyl}piperazin-1-yl]-phenyl}-2-[(1,R/S)-1-methylpropyl]-2,4-dihydro-3H-1,2,4-triazol-3-one], the entries for the “IC50 (minimum concentration to bring about 50% inhibition)” value with Aspergillus fumigatus (setting [1]) and in the series on Candida albicans (Candida albicans strain 21) were >64 and 38000 µg/mL (≈ 58100 µM), respectively.

`CCC(C)n1ncn(-c2ccc(N3CCN(c4ccc(OCC5COC(Cn6cncn6)(c6cc[n+]([O-])cc6)O5)cc4)CC3)cc2)c1=O` (racemic) [Example 18, cis(±)-4-{4-[4-{4-[2-(1-oxy-pyridin-4-yl)-2-(1H-1,2,4-triazol-1-yl-methyl)-1,3-dioxolan-4-yl-methoxy]phenyl}piperazin-1-yl]phenyl}-2-[(1,R/S)-1-methylpropyl]-2,4-dihydro-3H-1,2,4-triazol-3-one]: the “IC50 (minimum concentration to bring about 50% inhibition)” value in the series with Candida albicans (Candida albicans strain 21) worked out at 78000 µg/mL (≈ 119000 µM).

As to `CC[C@H](C)n1ncn(-c2ccc(N3CCN(c4ccc(OC[C@H]5CO[C@@](Cn6cncn6)(c6ccccn6)O5)cc4)CC3)cc2)c1=O` (relative stereo) [Example 13, cis(−)-4-{4-[4-{4-[2-(pyridin-2-yl)-2-(1H-1,2,4-triazol-1-yl-methyl)-1,3-dioxolan-4-yl-methoxy]phenyl}piperazin-1-yl]-phenyl}-2-[(1,S)-1-methylpropyl]-2,4-dihydro-3H-1,2,4-triazol-3-one], the IC50 is 0.46 ± 0.37 µM against CYP3A4; > 100 µM against CYP2D6; > 100 µM against CYP1A2; 28.4 ± 8.8 µM against CYP2C19; 27.2 ± 6.7 µM against CYP2C9. Further, the “IC50 (minimum concentration to bring about 50% inhibition)” value was 0.25 in the series with Aspergillus fumigatus (setting [2]), 1000 µg/mL (≈ 1570 µM) in the series with Candida glabrata, “≦0.03 mg/ml” with Candida parapsilosis and “≦0.03 mg/ml” in the series on Candida albicans (Candida albicans strain gen-45).

Consider `CC[C@H](C)n1ncn(-c2ccc(N3CCN(c4ccc(OC[C@H]5CO[C@@](Cn6cncn6)(c6ccccn6)O5)cc4)CC3)cc2)c1=O` (relative stereo) [Example 14, cis(+)-4-{4-[4-{4-[2-(pyridin-2-yl)-2-(1H-1,2,4-triazol-1-yl-methyl)-1,3-dioxolan-4-yl-methoxy]phenyl}piperazin-1-yl]-phenyl}-2-[(1,S)-1-methylpropyl]-2,4-dihydro-3H-1,2,4-triazol-3-one], for which the IC50 at CYP3A4 is 0.19 ± 0.08 µM; against CYP2D6, > 100 µM; against CYP1A2, > 100 µM; against CYP2C19 it was 27.9 ± 0.8 µM; against CYP2C9, 40 ± 11.2 µM. The “IC50 (minimum concentration to bring about 50% inhibition)” value in the series with Aspergillus fumigatus (setting [2]) was 0.5; with Candida glabrata, 2000 µg/mL (≈ 3140 µM); in the series on Candida parapsilosis, 0.06; with Candida albicans (Candida albicans strain gen-45), “≦0.03 mg/ml”.

Take `CC[C@@H](C)n1ncn(-c2ccc(N3CCN(c4ccc(OC[C@H]5CO[C@@](Cn6cncn6)(c6ccccn6)O5)cc4)CC3)cc2)c1=O` (relative stereo) [Example 15, cis(−)-4-{4-[4-{4-[2-(pyridin-2-yl)-2-(1H-1,2,4-triazol-1-yl-methyl)-1,3-dioxolan-4-yl-methoxy]phenyl}piperazin-1-yl]-phenyl}-2-[(1,R)-1-methylpropyl]-2,4-dihydro-3H-1,2,4-triazol-3-one]: the IC50 is 0.41 ± 0.13 µM on CYP3A4; 84 ± 39.4 µM against CYP2D6; > 100 µM at CYP1A2; 25.5 ± 4.3 µM against CYP2C19; 26.1 ± 1.3 µM on CYP2C9. Further, the “IC50 (minimum concentration to bring about 50% inhibition)” value is 0.12 in the series on Aspergillus fumigatus (setting [2]), 250 µg/mL (≈ 392 µM) with Candida glabrata, “≦0.03 mg/ml” with Candida parapsilosis and “≦0.03 mg/ml” in the series on Candida albicans (Candida albicans strain gen-45).

As to `CC[C@@H](C)n1ncn(-c2ccc(N3CCN(c4ccc(OC[C@H]5CO[C@@](Cn6cncn6)(c6ccccn6)O5)cc4)CC3)cc2)c1=O` (relative stereo) [Example 16, cis(+)-4-{4-[4-{4-[2-(pyridin-2-yl)-2-(1H-1,2,4-triazol-1-yl-methyl)-1,3-dioxolan-4-yl-methoxy]phenyl}piperazin-1-yl]-phenyl}-2-[(1,R)-1-methylpropyl]-2,4-dihydro-3H-1,2,4-triazol-3-one], the IC50 on CYP3A4 is 0.29 ± 0.01 µM; against CYP2D6, > 100 µM; at CYP1A2 it was > 100 µM; on CYP2C19 it was 43.1 ± 15 µM; against CYP2C9, 37.5 ± 6.8 µM. Moreover, the “IC50 (minimum concentration to bring about 50% inhibition)” value in the series on Aspergillus fumigatus (setting [2]) is 0.25; in the series with Candida glabrata, 500 µg/mL (≈ 784 µM); with Candida parapsilosis it was 0.06; in the series on Candida albicans (Candida albicans strain gen-45), “≦0.03 mg/ml”.

In the case of “cis(±)-4-{4-[4-{4-[2-(pyridin-3-yl)-2-(1H-1,2,4-triazol-1-yl-methyl)-1,3-dioxolan-4-yl-methoxy]phenyl}-1-piperazinyl]-phenyl}-2-(1-(R,S)methylpropyl)-2,4-dihydro-3H-1,2,4-triazol-3-one [Example 11]”, the IC50 against CYP3A4 amounted to 0.7 ± 0.1 µM; against CYP2C19, 31.5 ± 3.9 µM; against CYP2C9 it was 64.2 ± 6.2 µM.

As for “cis(±)-4-{4-[4-{4-[2-(pyridin-4-yl)-2-(1H-1,2,4-triazol-1-yl-methyl)-1,3-dioxolan-4-yl-methoxy]phenyl}-1-piperazinyl]-phenyl}-2-(1-(R,S)methylpropyl)-2,4-dihydro-3H-1,2,4-triazol-3-one [Example 10]”, the “IC50 (minimum concentration to bring about 50% inhibition)” value came out at 8 in the series on Aspergillus fumigatus (setting [1]) and 39000 µg/mL in the series with Candida albicans (Candida albicans strain 21).

As to “cis(±)-4-{4-[4-{4-[2-(thiazol-2-yl)-2-(1H-1,2,4-triazol-1-yl-methyl)-1,3-dioxolan-4-yl-methoxy]phenyl}-1-piperazinyl]-phenyl}-2-(1-(R,S)methylpropyl)-2,4-dihydro-3H-1,2,4-triazol-3-one [Example 12]”, the results for the IC50 on CYP3A4, at CYP2C19 and at CYP2C9 were 0.3 ± 0.1 µM, 10.9 ± 0.4 µM and 18.2 ± 0.3 µM, respectively.

These data come from patent publication US7427620B2, “Azole derivative useful as antifungal agents with reduced interaction with metabolic cytochromes” (Italfarmaco SPA, priority 2003, dated 2008).
